Test results published in US20160229835A1, “NOVEL PYRIDYLOXYACETYL TETRAHYDROISOQUINOLINE COMPOUNDS USEFUL AS NAMPT INHIBITORS” (ELI LILLY AND COMPANY, priority 2013, published 2016).
Read-outs that look alike come from different tables or passages of the source.

How the values were obtained:
Assay type in all cases: cell-based
[1] = system: RL95-2; experiment: Cell Proliferation Assay ±NA, RL95-2; settings: Homo sapiens, RL95-2, endometrium, treatment time 72 hr
Procedure: (§1) The purpose of this assay is to measure the ability of a compound to inhibit proliferation of endometrium, kidney, adrenal gland, and autonomic ganglia cancer cell lines dependent on the NAMPT-mediated NAD^+ formation in the presence or absence of NA (10 μM) in vitro. One day before the planned initiation of compound treatment portion of the assay, one vial of assay ready frozen cells is thawed, and the cells are grown overnight in the media as shown in Table 3 under 5% CO2 at 37° C. Then, the cell layer is briefly rinsed with 0.25% (w/v) Trypsin-0.038% (w/v) EDTA solution followed with the addition of 3.0 ml of Trypsin-EDTA solution. Once the cell layer is dispersed, 8.0 ml of complete growth medium (Table 3) is added and cells are aspirated by gently pipetting. The cell suspension is transferred to a centrifuge tube and centrifuged at 800-1000 rpm for 3-5 minutes. The supernatant is discarded using a vacuum pump. The cell pellet is suspended in a complete medium by gently pipetting. The cell numbers are counted and adjusted to the appropriate density (Table 3). […] The bottom of each plate is pasted with a white back seal and luminescence is recorded using a Flexstation 3 with the following settings: Luminescence and integration time of 500 ms.

[2] = system: 786-0; experiment: Cell Proliferation Assay ±NA, 786-0; settings: Homo sapiens, 786-0, kidney, treatment time 48 hr
Procedure: as §1

[3] = system: KLE; experiment: Cell Proliferation Assay ±NA, KLE; settings: Homo sapiens, endometrium, treatment time 72 hr
Procedure: as §1

[4] = system: U031; experiment: Cell Proliferation Assay ±NA, U031; settings: U031, kidney, treatment time 72 hr
Procedure: as §1

[5] = system: SN12C; experiment: Cell Proliferation Assay ±NA, SN12C; settings: Homo sapiens, kidney, treatment time 72 hr
Procedure: as §1

[6] = system: AN3-CA; experiment: Cell Proliferation Assay ±NA, AN3-CA; settings: Homo sapiens, endometrium, treatment time 72 hr
Procedure: as §1

[7] = system: COLO-684; experiment: Cell Proliferation Assay ±NA, COLO-684; settings: Homo sapiens, COLO-684, endometrium, treatment time 72 hr
Procedure: as §1

[8] = system: A704; experiment: Cell Proliferation Assay ±NA, A704; settings: Homo sapiens, A704, kidney, treatment time 72 hr
Procedure: as §1

[9] = NA 0.0 μM, read-out: IC50 (μM) NA (0.0 μM)
[10] = NA 10 μM, read-out: IC50 (μM) NA (10 μM)

CC(C)(O)CS(=O)(=O)Nc1ccc2c(c1)CCN(C(=O)COc1cccnc1)C2 [Example 1, 2-Hydroxy-2-methyl-N-[2-[2-(3-pyridyloxy)acetyl]-3,4-dihydro-1H-isoquinolin-6-yl]propane-1-sulfonamide]
IC50 [1, 9]: 0.02 µM | IC50 [1, 10]: 0.02 µM | IC50 [2, 9]: 0.07 µM | IC50 [2, 10]: 0.04 µM | IC50 [3, 9]: 0.04 µM | IC50 [3, 10]: > 2 µM | IC50 [4, 9]: 0.06 µM | IC50 [4, 10]: 0.06 µM | IC50 [5, 9]: 0.06 µM | IC50 [5, 10]: 0.05 µM | IC50 [6, 9]: 0.02 µM | IC50 [6, 10]: 0.02 µM | IC50 [7, 9]: 0.03 µM | IC50 [7, 10]: > 2 µM | IC50 [8, 9]: 0.37 µM | IC50 [8, 10]: > 2 µM
